Data published in ChEMBL document CHEMBL4706515, “Discovery of new [1,2,4] Triazolo[1,5-a]Pyrimidine derivatives that Kill gastric cancer cells via the mitochondria pathway” (Eur J Med Chem, 2020).
The source made the active and inactive calls. The calls are words filed in the database; no cut-off is given here.

What was measured:
MGC-803 [1] = experiment: Antiproliferative activity against human MGC-803 cells assessed as inhibition of cell growth at measured after 72 hrs by SRB assay; format: functional
SGC-7901 [2] = experiment: Antiproliferative activity against human SGC-7901 cells assessed as inhibition of cell growth at measured after 72 hrs by SRB assay; format: functional
MGC-803 [3] = experiment: Cell cycle arrest in human MGC-803 cells assessed as accumulation of cells in G2/M phase at 5 uM measured after 24 hrs by PI staining based flow cytometry; format: functional
MGC-803 [4] = experiment: Cell cycle arrest in human MGC-803 cells assessed as accumulation of cells in G2/M phase at 10 uM measured after 24 hrs by PI staining based flow cytometry; format: functional
MGC-803 [5] = experiment: Inhibition of cell proliferation in human MGC-803 cells at 5 uM measured by SRB assay; format: functional, cell-based; details: time 72.0 hrs
SGC-7901 [6] = experiment: Inhibition of cell proliferation in human SGC-7901 cells at 5 uM measured after 72 hrs by SRB assay; format: functional, cell-based
SGC-7901 [7] = experiment: Inhibition of cell proliferation in human SGC-7901 cells at 10 uM measured after 72 hrs by SRB assay; format: functional, cell-based
MGC-803 [8] = experiment: Induction of apoptosis in human MGC-803 cells assessed as early apoptotic cells at 0.625 uM measure after 24 hrs by Annexin-PI staining based Flowcytometry method (reference value: 9.8%); format: functional
MGC-803 [9] = experiment: Induction of apoptosis in human MGC-803 cells assessed as early apoptotic cells at 2.5 uM measure after 24 hrs by Annexin-PI staining based Flowcytometry method (reference value: 9.8%); format: functional
MGC-803 [10] = experiment: Induction of apoptosis in human MGC-803 cells assessed as necrotic cells at 2.5 uM measure after 24 hrs by Annexin-PI staining based Flowcytometry method (reference value: 3.13%); format: functional
MGC-803 [11] = experiment: Induction of apoptosis in human MGC-803 cells assessed as necrotic cells at 5 uM measure after 24 hrs by Annexin-PI staining based Flowcytometry method (reference value: 3.13%); format: functional
MGC-803 [12] = experiment: Induction of apoptosis in human MGC-803 cells assessed as viable cells at 10 uM measure after 24 hrs by Annexin-PI staining based Flowcytometry method (reference value: 80%); format: functional; details: read-out: Activity
MGC-803 [13] = experiment: Induction of apoptosis in human MGC-803 cells assessed as early apoptotic cells at 10 uM measure after 24 hrs by Annexin-PI staining based Flowcytometry method (reference value: 9.8%); format: functional
MGC-803 [14] = experiment: Induction of apoptosis in human MGC-803 cells assessed as necrotic cells at 10 uM measure after 24 hrs by Annexin-PI staining based Flowcytometry method (reference value: 3.13%); format: functional
SGC-7901 [15] = experiment: Induction of apoptosis in human SGC-7901 cells assessed as viable cells at 0.625 uM measure after 24 hrs by Annexin-PI staining based Flowcytometry method (reference value: 94.9%); format: functional; details: read-out: Activity
SGC-7901 [16] = experiment: Induction of apoptosis in human SGC-7901 cells assessed as late apoptotic cells at 0.625 uM measure after 24 hrs by Annexin-PI staining based Flowcytometry method (reference value: 1.29%); format: functional
SGC-7901 [17] = experiment: Induction of apoptosis in human SGC-7901 cells assessed as necrotic cells at 0.625 uM measure after 24 hrs by Annexin-PI staining based Flowcytometry method (reference value: 1.16%); format: functional
SGC-7901 [18] = experiment: Induction of apoptosis in human SGC-7901 cells assessed as viable cells at 1.25 uM measure after 24 hrs by Annexin-PI staining based Flowcytometry method (reference value: 94.9%); format: functional; details: read-out: Activity
SGC-7901 [19] = experiment: Induction of apoptosis in human SGC-7901 cells assessed as late apoptotic cells at 1.25 uM measure after 24 hrs by Annexin-PI staining based Flowcytometry method (reference value: 1.29%); format: functional
SGC-7901 [20] = experiment: Induction of apoptosis in human SGC-7901 cells assessed as necrotic cells at 1.25 uM measure after 24 hrs by Annexin-PI staining based Flowcytometry method (reference value: 1.16%); format: functional
SGC-7901 [21] = experiment: Induction of apoptosis in human SGC-7901 cells assessed as viable cells at 5 uM measure after 24 hrs by Annexin-PI staining based Flowcytometry method (reference value: 94.9%); format: functional; details: read-out: Activity
SGC-7901 [22] = experiment: Induction of apoptosis in human SGC-7901 cells assessed as early apoptotic cells at 5 uM measure after 24 hrs by Annexin-PI staining based Flowcytometry method (reference value: 2.68%); format: functional
SGC-7901 [23] = experiment: Induction of apoptosis in human SGC-7901 cells assessed as necrotic cells at 5 uM measure after 24 hrs by Annexin-PI staining based Flowcytometry method (reference value: 1.16%); format: functional
SGC-7901 [24] = experiment: Induction of apoptosis in human SGC-7901 cells assessed as viable cells at 10 uM measure after 24 hrs by Annexin-PI staining based Flowcytometry method (reference value: 94.9%); format: functional; details: read-out: Activity
SGC-7901 [25] = experiment: Induction of apoptosis in human SGC-7901 cells assessed as early apoptotic cells at 10 uM measure after 24 hrs by Annexin-PI staining based Flowcytometry method (reference value: 2.68%); format: functional
SGC-7901 [26] = experiment: Induction of apoptosis in human SGC-7901 cells assessed as late apoptotic cells at 10 uM measure after 24 hrs by Annexin-PI staining based Flowcytometry method (reference value: 1.29%); format: functional
MGC-803 [27] = experiment: Induction of apoptosis in human MGC-803 cells assessed as accumulation of cleaved caspase 3 protein at 0.625 to 10 uM measured after 24 hrs by western blot assay; format: functional, cell-based; details: dose 0.625-10 µM
MGC-803 [28] = experiment: Induction of mitochondrial membrane potential loss in human MGC-803 cells at 5 uM measured after 24 hrs by JC-1 staining based flow cytometry method (reference value: 0.344%); details: Mitochondria
MGC-803 [29] = experiment: Induction of mitochondrial membrane potential loss in human MGC-803 cells at 10 uM measured after 24 hrs by JC-1 staining based flow cytometry method (reference value: 0.344%); details: Mitochondria
MGC-803 [30] = experiment: Cytotoxicity against human MGC-803 cells assessed as inhibition of cell viability incubated for 1 hr with Z-VAD-FMK followed by addition of compound; format: functional, cell-based
MGC-803 [31] = experiment: Induction of apoptosis in human MGC-803 cells assessed as increase in ROS production at 5 uM measured after 24 hrs by DCHF-DA staining based Flowcytometry method; format: functional, cell-based
MGC-803 [32] = experiment: Antiproliferative activity in human MGC-803 cells assessed as inhibition of cell viability preincubated for 1 hr with NAC followed by compound addition at 5 uM measured after 72 hrs by SRB staining method; format: functional, cell-based
MGC-803 [33] = experiment: Induction of apoptosis in human MGC-803 cells assessed as increase in accumulation of LC3B-2 measured after 24 hrs by western blot assay; format: functional, cell-based
MGC-803 [34] = experiment: Induction of apoptosis in human MGC-803 cells assessed as increase in accumulation of cleaved PARP measured after 24 hrs by western blot assay; format: functional, cell-based
MGC-803 [35] = experiment: Induction of apoptosis in human MGC-803 cells assessed as increase in accumulation of LC3B-2 preincubated with Chloroquine measured after 24 hrs by western blot assay; format: functional, cell-based
MGC-803 [36] = experiment: Induction of apoptosis in human MGC-803 cells assessed as decrease in accumulation of cleaved PARP preincubated with Chloroquine measured after 24 hrs by western blot assay; format: functional, cell-based
[37] = Selectivity index, ratio of GI50 for human MGC803 to GI50 for human GES-1 cells

Cc1cc(Nc2ccc(C(=O)/C=C/c3cccc(Br)n3)cc2)n2nc(SCc3nc4ccccc4[nH]3)nc2n1
GI50 (MGC-803 [1]): 640 nM
GI50 (SGC-7901 [2]): 640 nM
Activity (MGC-803 [3]): Active
Activity (MGC-803 [4]): Active
inhibition (MGC-803 [5]): Active
inhibition (SGC-7901 [6]): Active
inhibition (SGC-7901 [7]): Active
Activity (MGC-803 [8]): 4.92%
Activity (MGC-803 [9]): 7.11%
Activity (MGC-803 [10]): 1.75%
Activity (MGC-803 [11]): 4.51%
viability at 10 µM (MGC-803 [12]): 45.3%
Activity (MGC-803 [13]): 9.48%
Activity (MGC-803 [14]): 8.84%
viability at 0.625 µM (SGC-7901 [15]): 94.2%
Activity (SGC-7901 [16]): 1.55%
Activity (SGC-7901 [17]): 1.96%
viability at 1.25 µM (SGC-7901 [18]): 94.8%
Activity (SGC-7901 [19]): 1.37%
Activity (SGC-7901 [20]): 2.24%
viability at 5 µM (SGC-7901 [21]): 53%
Activity (SGC-7901 [22]): 16.7%
Activity (SGC-7901 [23]): 0.586%
viability at 10 µM (SGC-7901 [24]): 23.9%
Activity (SGC-7901 [25]): 8.54%
Activity (SGC-7901 [26]): 62.8%
Activity (MGC-803 [27]): Active
Activity (MGC-803 [28]): 3.13%
Activity (MGC-803 [29]): 10.7%
inhibition (MGC-803 [30]): inactive
Activity (MGC-803 [31]): Active
inhibition (MGC-803 [32]): inactive
Activity (MGC-803 [33]): Active
Activity (MGC-803 [34]): Active
Activity (MGC-803 [35]): Active
Activity (MGC-803 [36]): inactive
RatioGI50 [37]: 6.9
